*1 amine or outer side, *2 acyl side, *3 side chain or, on linkers, in order; H or OH if unused. Where a SMILES comes first, the peptide text is derived from it. Bridges are numbered along the chain shown (N, C = ends). [ ]: non-standard residue; d: D form. ACHC(1S,2S) = O=C([C@H]1CCCC[C@@H]1N[*:1])[*:2]; X1 = O=C([C@@H]1CCC[C@@H]1N[*:1])[*:2]
Legend:
SARS-CoV-2 M^pro [1] = target: T1, SARS-CoV-2 M^pro (Severe acute respiratory syndrome coronavirus 2, UniProt P0DTD1); test: biochemical; assay type: binding; settings: for kon: read-out: ka (kinetic association)
T1 construct: also known as 3-chymotrypsin-like cysteine protease (3CL^pro) and nonstructural protein 5 (nsp5)

SARS-CoV-2 M^pro [2] = target: T1, SARS-CoV-2 M^pro; test: biochemical
[3] = Serum stability assay in human serum, LC/MS; assay type: in vitro ADME; settings: 37 °C, peptide 10 μM, up to 168 h, mean ± s.d. (n = 3), read-out: t1/2 in serum (converted)
Protocol: A synthetic macrocyclic peptide (10 μM) and a serum-resistant internal standard peptide consisting only of D-amino acids (NH2-PEG5-wstndwstnd-PEG5-CONH2, 5 μM) were mixed and incubated in human serum (Cosmo Bio, 12181201) at 37 °C for up to 168 h.[16] At each time point, 4 μL of the mixture was removed and quenched by adding 12 μL of methanol, followed by incubation on ice for 15 min. Following centrifugation (15,000 × g, 25 °C, 10 min), 10 μL of the supernatant was mixed with 40 μL of 1% (v/v) TFA in water. Following centrifugation (15,000 × g, 25 °C, 5 min), the supernatant was analyzed using LC/MS employing a reverse-phase column (ACQUITY UPLC BEH C18, 1.7 μm, 2.1 × 150 mm; Waters) and a Xevo G2-XS QTof system (Waters) with a linear gradient from 1% B to 61% B. Buffer A: water with 0.1% (v/v) formic acid; buffer B: acetonitrile with 0.1% (v/v) formic acid. The percentages of remaining peptides were determined by using the peak area integration of the chromatograms. The obtained LC/MS data were analyzed using a MassLynx 4.1 (Waters).

Row | Compound | Kd (SARS-CoV-2 M^pro [1]) [nM] | kon (SARS-CoV-2 M^pro [1]) [M⁻¹ s⁻¹] | IC50 (SARS-CoV-2 M^pro [2]) [nM] | half-life at 10 μM [3] [h]
1 | CC(C)C[C@@H]1NC(=O)[C@@H](Cc2ccc(O)cc2)NC(=O)CSC[C@H](C(N)=O)NC(=O)[C@H](Cc2ccccc2)NC(=O)[C@H](Cc2c[nH]cn2)NC(=O)[C@@H]2CCCN2C(=O)[C@H](CC(N)=O)NC(=O)[C@@H]2CCC[C@@H]2NC(=O)[C@H]([C@@H](C)O)NC(=O)[C@H](Cc2c[nH]cn2)NC1=O [BM4, ^AcyLHTβ^1NPHFc-NH2] ({CH2CO}-[dY]LHT[X1]NPHF[dC]-NH2; thioether N-10) | 1200 | 1700 | > 8000 | –
2 | CC(C)C[C@@H]1NC(=O)[C@H]2CCCC[C@@H]2NC(=O)[C@H](CC(N)=O)NC(=O)[C@H](CC(=O)O)NC(=O)[C@H](Cc2ccc(O)cc2)NC(=O)[C@H](CCCNC(=N)N)NC(=O)[C@H](Cc2c[nH]cn2)NC(=O)[C@H](Cc2ccccc2)NC(=O)[C@@H](Cc2ccc(O)cc2)NC(=O)CSC[C@H](C(N)=O)NC(=O)[C@H](Cc2ccc(O)cc2)NC(=O)[C@H](C(C)C)NC1=O [BM3, ^AcyFHRYDNβ^2LVYc-NH2] ({CH2CO}-[dY]FHRYDN[ACHC(1S,2S)]LVY[dC]-NH2; thioether N-12) | 7.7 | 810000 | 40 | 48
3 | CC(C)C[C@@H]1NC(=O)[C@H](Cc2c[nH]cn2)NC(=O)[C@H](Cc2ccc(O)cc2)NC(=O)[C@@H]2CCC[C@@H]2NC(=O)[C@H](CC(=O)O)NC(=O)[C@H](Cc2ccccc2)NC(=O)[C@@H](Cc2ccc(O)cc2)NC(=O)CSC[C@H](C(N)=O)NC(=O)[C@H](CCCNC(=N)N)NC(=O)[C@@H]2CCC[C@@H]2NC(=O)[C@H](CC(N)=O)NC1=O [BM7, ^AcyFDβ^1YHLNβ^1Rc-NH2] ({CH2CO}-[dY]FD[X1]YHLN[X1]R[dC]-NH2; thioether N-11) | 9.6 | 170000 | 20 | > 168
4 | CC(C)C[C@@H]1NC(=O)[C@H](C)NC(=O)[C@H](CC(N)=O)NC(=O)[C@H](CC(=O)O)NC(=O)[C@H](Cc2ccc(O)cc2)NC(=O)[C@H](CCCNC(=N)N)NC(=O)[C@H](Cc2c[nH]cn2)NC(=O)[C@H](Cc2ccccc2)NC(=O)[C@@H](Cc2ccc(O)cc2)NC(=O)CSC[C@H](C(N)=O)NC(=O)[C@H](Cc2ccc(O)cc2)NC(=O)[C@H](C(C)C)NC1=O [BM3A, ^AcyFHRYDNA LVYc-NH2] ({CH2CO}-[dY]FHRYDNALVY[dC]-NH2; thioether N-12) | > 10000 | – | > 25000 | 4.6
5 | CC(C)C[C@@H]1NC(=O)[C@H](CC(N)=O)NC(=O)[C@H](Cc2c[nH]cn2)NC(=O)[C@H](Cc2ccccc2)NC(=O)[C@@H]2CCC[C@@H]2NC(=O)[C@H](Cc2c[nH]cn2)NC(=O)[C@H](Cc2ccccc2)NC(=O)[C@@H](Cc2ccc(O)cc2)NC(=O)CSC[C@H](C(N)=O)NC(=O)[C@H](Cc2c[nH]cn2)NC(=O)[C@H](CC(C)C)NC(=O)[C@H](CCCNC(=N)N)NC(=O)[C@H](Cc2ccccc2)NC1=O [BM5, ^AcyFHβ^1FHNLFRLHc-NH2] ({CH2CO}-[dY]FH[X1]FHNLFRLH[dC]-NH2; thioether N-13) | 22 | 36000 | 360 | –
6 | CC(C)C[C@@H]1NC(=O)[C@H](Cc2c[nH]cn2)NC(=O)[C@H](Cc2ccc(O)cc2)NC(=O)[C@H](C)NC(=O)[C@H](CC(=O)O)NC(=O)[C@H](Cc2ccccc2)NC(=O)[C@@H](Cc2ccc(O)cc2)NC(=O)CSC[C@H](C(N)=O)NC(=O)[C@H](CCCNC(=N)N)NC(=O)[C@H](C)NC(=O)[C@H](CC(N)=O)NC1=O [BM7A, ^AcyFDA YHLNA Rc-NH2] ({CH2CO}-[dY]FDAYHLNAR[dC]-NH2; thioether N-11) | > 10000 | – | > 25000 | 4.2
7 | CC(C)C[C@@H]1NC(=O)[C@H](CO)NC(=O)[C@H](CCCNC(=N)N)NC(=O)[C@H](Cc2ccccc2)NC(=O)[C@@H]2CCC[C@@H]2NC(=O)[C@H](Cc2c[nH]cn2)NC(=O)[C@H](Cc2ccccc2)NC(=O)[C@@H](Cc2ccc(O)cc2)NC(=O)CSC[C@H](C(N)=O)NC(=O)CNC(=O)[C@H](Cc2ccccc2)NC(=O)[C@H](C(C)C)NC(=O)[C@H](Cc2ccccc2)NC1=O [BM6, ^AcyFHβ^1FRSLFVFGc-NH2] ({CH2CO}-[dY]FH[X1]FRSLFVFG[dC]-NH2; thioether N-13) | 2.9 | 260000 | 2150 | –

Reference: paper PMC11141402, “Cyclic β^2,3-amino acids improve the serum stability of macrocyclic peptide inhibitors targeting the SARS-CoV-2 main protease” (Bulletin of the Chemical Society of Japan, 2024)
